Laboratory results as given in patent US20240269135A1, “METHODS OF TREATING BREAST CANCER” (ASTRAZENECA AB, priority 2021, published 2024).

Tests used:
[1] = test system: metastatic HER2-negative breast cancer patients with gBRCA-P/LP variants; conditions: 45% received capecitabine as comparator; cited from earlier work
[2] = test system: patients with HER2-negative early breast cancer with BRCA1/2 germline pathogenic/likely pathogenic variants; assay: OlympiA randomized double-blind phase 3 trial: invasive-disease-free, distant-disease-free and overall survival (incl. subgroup and sensitivity analyses); type: in vivo
Description: We conducted a randomized double-blind phase 3 trial involving patients with HER2-negative early breast cancer with BRCA1/2 germline pathogenic/likely pathogenic variants (gBRCA-P/LP-variant), and high-risk clinico-pathological factors, after local treatment and (neo)adjuvant chemotherapy. […] The primary endpoint was invasive disease-free-survival.
The trial was designed and conducted as a collaborative partnership between the Breast International Group (BIG) and the sponsors NRG Oncology in the United States (US) and AstraZeneca (AZ) outside the US.
Patients eligible for the trial harbored a gBRCA-P/LP variant defined by local or central testing and high-risk, HER2-negative primary breast cancer following definitive local treatment and neoadjuvant or adjuvant chemotherapy. […] Details of gBRCA-P/LP variant screening, local and central gBRCA-P/LP variant testing, and concordance is provided in Figure S2 and Table S2/S3 in Supplementary Appendix. Any gBRCA-P/LP variant eligibility adjudication was conducted by the trial Genetics Advisory Committee. Local estrogen-receptor, progesterone-receptor and HER2 testing results were used for determination of the hormone-receptor status (cut-point for positive was ≥1%) for stratification and for hormone-receptor-positive specific stage criteria for eligibility (details for receptor status central review and concordance for all patients recruited outside China are provided in Supplementary Appendix Tables S4 and S5).
Patients were required to have completed all local therapy including radiotherapy, which interacts with PARP inhibition, at least 2 and not more than 12 weeks before study entry. Patients had completed at least 6 cycles of neoadjuvant or adjuvant chemotherapy containing anthracyclines, taxanes or both agents. Platinum chemotherapy was allowed. Adjuvant bisphosphonates and adjuvant endocrine therapy in patients with hormone-receptor positive disease were given according to institutional guidelines. No chemotherapy after surgery was allowed in patients who received neoadjuvant chemotherapy.
Patients were stratified by hormone-receptor status (positive versus negative), NACT versus ACT and use of platinum chemotherapy for current breast cancer (yes versus no).
Following randomization, medical history and physical examination were performed on a 4-weekly basis for 24 weeks and then 3-monthly through year 2, 6-monthly assessments in years 3 to 5 and annually thereafter. […] Patients had mammogram and/or breast magnetic-resonance-imaging annually.
After a first event, patients were followed for first distant relapse (if not the first event), CNS metastases, loco-regional relapses, contralateral breast cancer, second primary malignancies and survival status.
In accordance with the standardized definitions for efficacy end points (STEEP) system,^21 the primary endpoint of invasive disease-free survival was defined as the time from randomization until the date of first occurrence of one of the following events: ipsilateral invasive breast tumor, locoregional invasive disease, distant recurrence, contralateral invasive breast cancer, second primary invasive cancer or death from any cause. Patients without a documented invasive disease-free survival event were censored at the date they were last known to be disease-free.
Efficacy analyses were based on the intention-to-treat (ITT) population. Survival functions were estimated by Kaplan-Meier method. The stratified Cox proportional-hazards model was used to estimate the hazard ratio and confidence intervals, the comparison of survival between treatment arms was tested by stratified log-rank test. […] Safety was assessed in the population who received at least one dose of study medication.

[3] = ITT, olaparib-group N=921, Kaplan-Meier, median follow-up 2.5 years
[4] = all deaths, ITT, olaparib N=921
[5] = percentage of the 59 deaths in the olaparib-group

## O=C(c1cc(Cc2n[nH]c(=O)c3ccccc23)ccc1F)N1CCN(C(=O)C2CC2)CC1 [Olaparib, 4-[(3-{[4-(cyclopropane-carbonyl)piperazine-1-yl]carbonyl}-4-fluorophenyl)methyl]-2H-phthalazin-1-one]
[1]
  progression-free-survival versus chemotherapy: more effective than chemotherapy
[2]; ITT, olaparib N=921
  Deaths without a prior IDFS event: 2 no. of patients
  IDFS events: 106 no. of patients
  Total number of deaths: 59 no. of patients
[2]; [3]
  3-year distant-disease-free survival: 87.5%
  3-year invasive-disease-free survival: 85.9%
[2]; ITT, 95% CI 3.0%, 11.1%
  difference in 3-year distant-disease-free survival, olaparib vs placebo: 7.1%
[2]; ITT, 95% CI 4.5%, 13.0%
  difference in 3-year invasive-disease-free survival, olaparib vs placebo: 8.8%
[2]; Overall
  Invasive disease free survival Events (%): 106 (11.5)/178 (19.5) events (%)
[2]; [4]
  Primary cause of death: Adverse event: 1 no. of patients
  Primary cause of death: Breast cancer: 55 no. of patients
  Primary cause of death: Other: 3 no. of patients
[2]; [5]
  Primary cause of death: Adverse event: 1.7%
  Primary cause of death: Breast cancer: 93.2%
  Primary cause of death: Other: 5.1%
[2]; subgroup Age 50-64 years at randomisation
  Invasive disease free survival Events (%): 22 (11.4)/41 (19.5) events (%)
[2]; subgroup Age < 50 years at randomisation
  Invasive disease free survival Events (%): 79 (11.3)/133 (19.8) events (%)
[2]; subgroup Age ≥ 65 years at randomisation
  Invasive disease free survival Events (%): 5 (17.2)/4 (12.5) events (%)
[2]; subgroup BRCA1/2 both with no prior platinum therapy for current breast cancer
  Invasive disease free survival Events (%): 0 (0.0)/0 (0.0) events (%)
[2]; subgroup BRCA1/2 both with prior platinum therapy for current breast cancer
  Invasive disease free survival Events (%): 0/0 (0.0) events (%)
[2]; subgroup BRCA1 with no prior platinum therapy for current breast cancer
  Invasive disease free survival Events (%): 43 (11.2)/91 (24.0) events (%)
[2]; subgroup BRCA1 with prior platinum therapy for current breast cancer
  Invasive disease free survival Events (%): 27 (15.5)/35 (19.6) events (%)
[2]; subgroup BRCA2 with no prior platinum therapy for current breast cancer
  Invasive disease free survival Events (%): 18 (10.2)/30 (17.8) events (%)
[2]; subgroup BRCA2 with prior platinum therapy for current breast cancer
  Invasive disease free survival Events (%): 4 (7.5)/8 (20.0) events (%)
[2]; subgroup BRCA variant type: BRCA1
  Invasive disease free survival Events (%): 70 (12.5)/126 (22.6) events (%)
[2]; subgroup BRCA variant type: BRCA1/2
  Invasive disease free survival Events (%): 0 (0.0)/0 (0.0) events (%)
[2]; subgroup BRCA variant type: BRCA2
  Invasive disease free survival Events (%): 22 (9.6)/38 (18.2) events (%)
[2]; subgroup Bilateral oophorectomy prior to first dose
  Invasive disease free survival Events (%): 14 (7.4)/38 (21.6) events (%)
[2]; subgroup Ethnicity: Hispanic or Latino
  Invasive disease free survival Events (%): 7 (20.6)/7 (29.2) events (%)
[2]; subgroup Ethnicity: Not Hispanic or Latino
  Invasive disease free survival Events (%): 88 (10.9)/153 (18.8) events (%)
[2]; subgroup Ethnicity: Not known, not recorded or refused
  Invasive disease free survival Events (%): 11 (13.4)/18 (22.8) events (%)
[2]; subgroup Geographic region: Asia Pacific and South Africa
  Invasive disease free survival Events (%): 30 (9.9)/55 (17.2) events (%)
[2]; subgroup Geographic region: Europe
  Invasive disease free survival Events (%): 62 (12.9)/95 (21.0) events (%)
[2]; subgroup Geographic region: North America
  Invasive disease free survival Events (%): 11 (9.0)/23 (17.4) events (%)
[2]; subgroup Geographic region: South America
  Invasive disease free survival Events (%): 3 (18.8)/5 (41.7) events (%)
[2]; subgroup HR status: HR+/HER2−
  Invasive disease free survival Events (%): 19 (11.3)/25 (15.9) events (%)
[2]; subgroup HR status: TNBC
  Invasive disease free survival Events (%): 87 (11.6)/153 (20.2) events (%)
[2]; subgroup HR+/HER2− with adjuvant chemotherapy
  Invasive disease free survival Events (%): 6 (9.4)/5 (7.7) events (%)
[2]; subgroup HR+/HER2− with neoadjuvant chemotherapy
  Invasive disease free survival Events (%): 13 (12.5)/20 (21.7) events (%)
[2]; subgroup Jewish descent: No, not of Ashkenazi descent
  Invasive disease free survival Events (%): 100 (11.4)/169 (19.3) events (%)
[2]; subgroup Jewish descent: Yes, of Ashkenazi descent
  Invasive disease free survival Events (%): 6 (14.6)/9 (25.0) events (%)
[2]; subgroup No bilateral oophorectomy prior to first dose
  Invasive disease free survival Events (%): 92 (12.6)/140 (18.9) events (%)
[2]; subgroup No prior platinum/ACT
  Invasive disease free survival Events (%): 28 (7.3)/57 (14.8) events (%)
[2]; subgroup No prior platinum/HR+/HER2−
  Invasive disease free survival Events (%): 13 (9.3)/22 (16.4) events (%)
[2]; subgroup No prior platinum/NACT
  Invasive disease free survival Events (%): 44 (15.1)/78 (26.8) events (%)
[2]; subgroup No prior platinum/TNBC
  Invasive disease free survival Events (%): 59 (11.1)/113 (20.8) events (%)
[2]; subgroup Primary Study Database: Breast International Group (BIG)
  Invasive disease free survival Events (%): 95 (11.7)/160 (19.9) events (%)
[2]; subgroup Primary Study Database: NRG Oncology (US)
  Invasive disease free survival Events (%): 11 (9.9)/18 (16.5) events (%)
[2]; subgroup Prior Chemo: Adjuvant
  Invasive disease free survival Events (%): 36 (7.8)/61 (13.4) events (%)
[2]; subgroup Prior Chemo: Neoadjuvant
  Invasive disease free survival Events (%): 70 (15.2)/117 (25.4) events (%)
[2]; subgroup Prior Platinum: No
  Invasive disease free survival Events (%): 72 (10.7)/135 (20.0) events (%)
[2]; subgroup Prior Platinum: Yes
  Invasive disease free survival Events (%): 34 (13.8)/43 (18.0) events (%)
[2]; subgroup Prior platinum/ACT
  Invasive disease free survival Events (%): 8 (10.3)/4 (5.7) events (%)
[2]; subgroup Prior platinum/HR+/HER2−
  Invasive disease free survival Events (%): 6 (21.4)/3 (13.0) events (%)
[2]; subgroup Prior platinum/NACT
  Invasive disease free survival Events (%): 26 (15.4)/39 (23.1) events (%)
[2]; subgroup Prior platinum/TNBC
  Invasive disease free survival Events (%): 28 (12.8)/40 (18.5) events (%)
[2]; subgroup Race: Asian
  Invasive disease free survival Events (%): 25 (9.7)/46 (16.9) events (%)
[2]; subgroup Race: Black/African-American
  Invasive disease free survival Events (%): 4 (21.1)/5 (17.2) events (%)
[2]; subgroup Race: Other
  Invasive disease free survival Events (%): 2 (11.8)/3 (20.0) events (%)
[2]; subgroup Race: White
  Invasive disease free survival Events (%): 75 (12.0)/124 (20.7) events (%)
[2]; subgroup TNBC adjuvant cohort, pN status at surgery: Node negative
  Invasive disease free survival Events (%): 13 (6.4)/22 (11.5) events (%)
[2]; subgroup TNBC adjuvant cohort, pN status at surgery: Node positive
  Invasive disease free survival Events (%): 15 (8.6)/31 (17.5) events (%)
[2]; subgroup TNBC with adjuvant chemotherapy
  Invasive disease free survival Events (%): 30 (7.6)/56 (14.4) events (%)
[2]; subgroup TNBC with neoadjuvant chemotherapy
  Invasive disease free survival Events (%): 57 (16.1)/97 (26.4) events (%)
[2]; subgroup breast surgery prior to randomisation: Breast conservation
  Invasive disease free survival Events (%): 20 (9.0)/46 (19.2) events (%)
[2]; subgroup post neoadjuvant group: CPS + EG score of 2, 3 or 4
  Invasive disease free survival Events (%): 55 (13.8)/96 (24.8) events (%)
[2]; subgroup post neoadjuvant group: CPS + EG score of 5 or 6
  Invasive disease free survival Events (%): 11 (50.0)/10 (66.7) events (%)
[2]; subgroup prior chemotherapy: Anthracycline and taxane regimen
  Invasive disease free survival Events (%): 101 (11.6)/168 (19.8) events (%)
[2]; subgroup prior chemotherapy: Anthracycline regimen (without taxane)
  Invasive disease free survival Events (%): 0 (0.0)/2 (15.4) events (%)
[2]; subgroup prior chemotherapy: Taxane regimen (without Anthracycline)
  Invasive disease free survival Events (%): 5 (11.6)/8 (15.4) events (%)
